Results published in patent US20100209406A1, “BACILLUS STRAINS AND METHODS FOR REDUCING E. COLI DISEASE AND ENHANCING PERFORMANCE” (priority 2004, published 2010).
Residues, ends and D or L forms follow the SMILES beside them.

How the values were obtained:
Experiment in all cases: Antibiotic sensitivity assay (antibiotic discs)
Format in all cases: cell-based, Bacillus subtilis
Bacillus strain 15A-P4 = conditions: antibiotic disc on TSA with 1.0% 15A-P4, 32° C. overnight
Procedure: (§1) After the plates were solidified, the antibiotic discs were placed onto the agar surface. The plates were incubated at 32° C. overnight. Inhibitory zones were measured in millimeters.

Bacillus strain 22C-P1 = conditions: antibiotic disc on TSA with 1.0% 22C-P1, 32° C. overnight
Procedure: as §1

Bacillus strain 3A-P4 = conditions: antibiotic disc on TSA with 1.0% 3A-P4, 32° C. overnight
Procedure: as §1

CC[C@H](C)[C@H](N)C1=N[C@H](C(=O)N[C@@H](CC(C)C)C(=O)N[C@H](CCC(=O)O)C(=O)N[C@H](C(=O)N[C@H]2CCCCNC(=O)[C@H](CC(N)=O)NC(=O)[C@@H](CC(=O)O)NC(=O)[C@H](Cc3cnc[nH]3)NC(=O)[C@@H](Cc3ccccc3)NC(=O)[C@H]([C@@H](C)CC)NC(=O)[C@@H](CCCN)NC2=O)[C@@H](C)CC)CS1 [Bacitracin] (HELM PEPTIDE1{[CC[C@H](C)[C@H](N)C1=N[C@H](C(=O)[*:2])CS1].L.[dE].I.K.[NCCC[C@@H](N[*:1])C(=O)[*:2]].I.[dF].H.[dD].N}$PEPTIDE1,PEPTIDE1,5:R3-11:R2$$$V2.0)
Inhibitory Zones (Bacillus strain 15A-P4): 8 Millimeters
Inhibitory Zones (Bacillus strain 22C-P1): 8 Millimeters
Inhibitory Zones (Bacillus strain 3A-P4): 8 Millimeters

Penicillin
Inhibitory Zones (Bacillus strain 15A-P4): 11 Millimeters
Inhibitory Zones (Bacillus strain 22C-P1): 13 Millimeters
Inhibitory Zones (Bacillus strain 3A-P4): 0 Millimeters

Gentamycin
Inhibitory Zones (Bacillus strain 15A-P4): 22 Millimeters
Inhibitory Zones (Bacillus strain 22C-P1): 22 Millimeters
Inhibitory Zones (Bacillus strain 3A-P4): 26 Millimeters

Neomycin
Inhibitory Zones (Bacillus strain 15A-P4): 12 Millimeters
Inhibitory Zones (Bacillus strain 22C-P1): 12 Millimeters
Inhibitory Zones (Bacillus strain 3A-P4): 16 Millimeters

CCC[C@@H]1C[C@@H](C(=O)N[C@@H]([C@H]2O[C@H](SC)[C@H](O)[C@@H](O)[C@H]2O)[C@@H](C)O)N(C)C1 [Lincomycin]
Inhibitory Zones (Bacillus strain 15A-P4): 9 Millimeters
Inhibitory Zones (Bacillus strain 22C-P1): 8 Millimeters
Inhibitory Zones (Bacillus strain 3A-P4): 8 Millimeters

CN(C)[C@@H]1C(O)=C(C(N)=O)C(=O)[C@@]2(O)C(O)=C3C(=O)c4c(O)cccc4[C@@](C)(O)[C@H]3C[C@@H]12 [Tetracycline]
Inhibitory Zones (Bacillus strain 15A-P4): 14 Millimeters
Inhibitory Zones (Bacillus strain 22C-P1): 21 Millimeters
Inhibitory Zones (Bacillus strain 3A-P4): 26 Millimeters

CN(C)[C@@H]1C(=O)C(C(N)=O)=C(O)[C@@]2(O)C(=O)C3=C(O)c4c(O)cccc4[C@@](C)(O)[C@H]3[C@H](O)[C@@H]12 [Oxytetracycxyline]
Inhibitory Zones (Bacillus strain 15A-P4): 14 Millimeters
Inhibitory Zones (Bacillus strain 22C-P1): 24 Millimeters
Inhibitory Zones (Bacillus strain 3A-P4): 24 Millimeters
